Test results as given in the METLIN SMRT retention time set (Domingo-Almenara et al. 2019).

Assay: gradient 5% acetonitrile 3 min, to 50% in 2 min, to 85% in 15 min, held 3 min, 100 µL/min
Conditions: column: Zorbax Extend-C18 2.1 x 50 mm; eluents: water / acetonitrile, 0.1% formic acid
In short: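 Over 3 months, pure standards in mixtures of ~100 molecules were run by HPLC coupled to a quadrupole time-of-flight mass spectrometer in positive and negative ionization mode. The column was a Zorbax Extend-C18 (2.1 × 50 mm, 1.8 μm) at 100 μL/min, eluted with water and acetonitrile each holding 0.1% formic acid, with 40 μL dead and 900 μL dwell volumes. Retention time was determined from adduct peaks chosen by software and checked manually.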

Row | SMILES | RP-LC retention time [s]
1 | O=C(CN1C(=O)NC2(CCCCC2)C1=O)Nc1ccc2c(c1)CCC2 | 846
2 | COc1ccc(CNC(=O)Cn2c(N3CCOCC3)nc(C)cc2=O)cc1 | 629
3 | Cn1c(=O)n(C)c2cc(N3CCOCC3)c(NC(=O)NCc3cccc(F)c3)cc21 | 705
4 | COc1ccc(C(=O)NCc2c(C)noc2C)cn1 | 633
5 | Clc1cccc(Cc2nc(-c3ccc(-n4ccnc4)nc3)no2)c1 | 764
6 | CN(CC1CCOC1)C(=O)Nc1ccc(F)c(Cl)c1 (centres undefined) | 709
7 | COc1ccc(N2CCN(c3ncc(S(=O)(=O)c4ccc(C(C)C)cc4)c(N)n3)CC2)cc1 | 1070
8 | CC1CCc2nn(CC(=O)NCCN3CCCCCC3)cc2C1 (centres undefined) | 605
9 | COc1ccc(NC(=O)N2C[C@@H](F)C[C@H]2C(=O)N2CCc3ccccc3C2)cc1F | 797
10 | O=c1n(CCc2ccccc2)nc2ccc(S(=O)(=O)N3CCCC3)cn12 | 868
11 | O=C(NCc1ccco1)C1CN(C(=O)c2ccc(F)c(F)c2)C1 | 663
12 | O=C1C2N=NN(Cc3nc(-c4ccc(Br)cc4)no3)C2C(=O)N1c1ccccc1 (centres undefined) | 1030
13 | COc1ccc(-c2cn3ccn(-c4ccc(OC)c(Cl)c4)c(=O)c3n2)cc1 | 1240
14 | CC(Oc1ccccc1)C(=O)N1CCC(c2cc(N)on2)CC1 (centres undefined) | 674
15 | Cc1oc(-c2[nH]ncc2C(=O)N2CCCC2)cc1S(=O)(=O)Nc1ccc(C(C)C)cc1 | 835
16 | CCN(CC)C(=O)c1ccc2oc(CN3CCN(C(=O)NC(C)(C)C)CC3)nc2c1 | 628
17 | O=C(CCNc1c(-c2cccc(F)c2)nc2cnccn12)NCc1ccc(F)cc1F | 776
18 | CCOC(=O)C(NC(C)=O)(C(=O)OCC)C(C)c1c[nH]c2ccccc12 (centres undefined) | 847
19 | CC(C)NC(=O)c1ccc(OCC2CCCN2C(=O)c2ccc(C(F)(F)F)cc2)cc1 (centres undefined) | 914
20 | CN(C)C(=O)c1n[nH]c2c1CN(C(=O)c1cccc(Cl)c1)CC2 | 642

Row | SMILES | RP-LC retention time [s]
21 | Cc1ccc2cc(CCC(=O)NCc3ccc(N4CCOCC4)cc3)c(=O)[nH]c2c1 | 655
22 | COc1ccc(CC(=O)N2CCN(c3cc(C)n4cnnc4n3)CC2)cc1Cl | 611
23 | O=C(c1ccccc1Cl)N1CC2CC(C1)c1cccc(=O)n1C2 (centres undefined) | 596
24 | Cc1cccc(NC(=O)CSc2ccc(N3CCCC(C(=O)NC4CC4)C3)nn2)c1 (centres undefined) | 648
25 | COc1ccc(-c2c(C)noc2NC(C)=O)cc1S(=O)(=O)N1CCC(C)CC1 | 801
26 | CCN(C(=O)C1CCN(S(=O)(=O)c2ccc3c(c2)NC(=O)CO3)CC1)c1ccc(OC)cc1 | 788
27 | COc1cccc(NC(=O)C2CCN(S(=O)(=O)c3ccc4c(c3)sc(=O)n4C(C)C)CC2)c1 | 960
28 | Cc1cc(C(=O)N2CCCn3ccnc3C2c2cnn(C)c2)c(C)o1 (centres undefined) | 587
29 | COc1ccc(-n2c(C)nc3ccc(NC(=O)C4CC4)cc3c2=O)cc1 | 683
30 | CC(C)c1noc(-c2ccn3c(CC(=O)NC4CCCCCC4)nnc3c2)n1 | 823
31 | COc1cc(OC)c(C(=O)CCCCN2CCC3(CC2)NC(=O)NC3=O)cc1NS(=O)(=O)c1ccc(C(F)(F)F)cc1 | 750
32 | Cc1ccc(-c2nccn3cc(C(=O)N4CCOCC4)nc23)cc1 | 748
33 | Clc1ccc(-c2nc(NC3CCCCC3)c3ccccc3n2)cc1 | 924
34 | Nn1nnc2ccccc21 | 651
35 | COc1ccc(C2CCCN2C(=O)Cc2cccs2)cc1 (centres undefined) | 875
36 | CCCCN1C(=O)CN(S(=O)(=O)c2ccc(C)cc2)CC1(C)C(=O)NCc1ccccc1 (centres undefined) | 974
37 | Cc1ccc(NC(=O)N2CCC3(CC2)NC(=O)c2cc(F)ccc2N3C)cc1C | 832
38 | CCOc1ccc2ncc(S(=O)(=O)c3ccc(Cl)cc3)c(N3CCN(C)CC3)c2c1 | 680
39 | COc1ccc(N2CCN(c3cc(SCC(=O)Nc4ccc(C(C)C)cc4)ncn3)CC2)cc1 | 1110
40 | CC(C)c1nnc2n1CCN(C(=O)c1ccsc1)C2 | 596

Row | SMILES | RP-LC retention time [s]
41 | Cc1nn(C)c(C)c1S(=O)(=O)N1CCC(n2c(C)cnc2-c2ccccc2)C1 (centres undefined) | 618
42 | CCC(C)NC(=O)c1ccc(Cn2nc(C)c(S(=O)(=O)N(C)C)c2C)cc1 (centres undefined) | 754
43 | CCSc1nnc(NC(=O)C2CCCN(Cc3nc(-c4cccs4)no3)C2)s1 (centres undefined) | 769
44 | CCOC(=O)c1c(S(=O)(=O)N2CCC(C(=O)NCc3ccc(OC)cc3)CC2)c(C)n(C)c1C | 793
45 | O=C(Nc1ccc(Cl)c(Cl)c1)N1CCN(Cc2ccsc2)CC1 | 598
46 | COc1cccc(NS(=O)(=O)c2cc3n(c2)CCN(CC(C)C)C3=O)c1 | 784
47 | Cc1ccc(Nc2nc(C)cc(N3CCN(C(=O)Nc4ccc5c(c4)OCO5)CC3)n2)cc1 | 676
48 | Cc1ccc2[nH]c(C(=O)NC3CCN(C)CC3)cc2c1 | 845
49 | O=C(c1ccc2ncnc(N3CCCC3)c2c1)N1CCCC1 | 580
50 | CCOC(=O)C(=O)Nc1cccc(F)c1 | 723
51 | CCOC(=O)c1c(C)[nH]c(CCC(=O)Nc2cc(F)ccc2F)c1C | 933
52 | COC(=O)c1ccc2c(=O)n(Cc3cccc(OC)c3)c(N3CCOCC3)nc2c1 | 936
53 | Cc1cc2nn(CC(=O)Nc3ccc(F)c(F)c3)c(=O)n2c(Nc2ccc(F)c(C)c2)n1 | 1090
54 | Cc1csc(-c2cc(S(=O)(=O)NCCN(C)C)cn2CC(=O)N2CCCCC2)n1 | 630
55 | O=C1NCCc2ccc(NC(=O)C3CC(=O)N(c4ccc(Cl)cc4)C3)cc21 (centres undefined) | 661
56 | Cc1cc2nn(CC(=O)N3CCCC3)c(=O)n2c(Nc2ccc(F)c(C)c2)n1 | 643
57 | Cc1ccc(C(=O)N2CCCC(c3ccnc(Nc4ccc(F)cc4)n3)C2)s1 (centres undefined) | 1020
58 | Cc1cccc(N2CCN(C(=O)Cn3nc(C(=O)N4CCCC4)c4ccccc43)CC2)c1C | 1020

The remaining lines, values ahead:

Row | RP-LC retention time [s] | SMILES
59 | 604 | Cn1cnc2cc(CNC(=O)CCc3ccccc3)ccc21
60 | 1040 | O=S(=O)(c1cccc(-c2nnc(-c3ccccc3Br)o2)c1)N1CCCC1
61 | 1340 | Cc1ccccc1-c1noc(C2CCCN2S(=O)(=O)c2ccc(C(C)C)cc2)n1 (centres undefined)
62 | 1130 | Cc1ccc(N2CN(Cc3ccccc3)S(=O)(=O)c3cccnc32)cc1
63 | 820 | Cc1ccc(-c2nc3ncccn3c2Nc2c(C)cccc2C)cc1
64 | 1060 | CCN1C=C(C(=O)OCc2ccc(Cl)cc2)C(C)=NS1(=O)=O
65 | 990 | Cc1ccc(-c2ccc(=O)n(Cc3nc(-c4cccs4)no3)n2)cc1
66 | 1020 | COc1ccccc1-c1nc2nccc(-c3ccc(Br)s3)n2n1
67 | 989 | O=C(Nc1ccc(N2CCN(c3ccccc3)C2=O)nc1)c1ccc(F)c(F)c1
68 | 622 | COCc1cc(=O)n(CC(=O)Nc2cccc(C)c2)c(N)n1
69 | 1070 | CCCCNC(=O)Cc1c(C)nn(-c2nc(-c3ccc(F)cc3)cs2)c1C
70 | 765 | N#Cc1ccc(C(=O)NC(c2ccccc2)c2nnc(N3CCCC3)o2)cc1 (centres undefined)
71 | 1140 | COc1ccc2c(c1)-c1nc(NC(=O)c3ccccc3Br)sc1CC2
72 | 732 | CCCn1cc(CCNC(=O)c2ccc(F)cc2)c2cccnc21
73 | 996 | Cc1ccccc1-c1noc(CN2N=NC3C(=O)N(c4cccc(Cl)c4)C(=O)C32)n1 (centres undefined)
74 | 611 | Cc1nc(COc2ccccc2)sc1C(=O)NCCN(C)C

Row | RP-LC retention time [s] | SMILES
75 | 819 | O=S(=O)(Cc1ccccc1)N1CCC[C@H]1c1nc(-c2ccc(F)cc2)n[nH]1
76 | 670 | Cc1ccsc1C(=O)NC1CCN(c2cc(-c3ccc(F)cc3)[nH]n2)C1 (centres undefined)
77 | 612 | O=C(CCc1csc2nc(C3CC3)cn12)NCc1ccc(OC(F)(F)F)cc1
78 | 662 | c1csc(CN2CCC(Oc3ccccc3-c3nc(-c4cnccn4)no3)C2)c1 (centres undefined)
79 | 692 | CCOC(=O)c1cnc(N2CCN(c3ccccn3)CC2)c2ccccc12
80 | 1090 | Cc1cc(C)cc(NC(=O)C2CCCN(c3nc4ccsc4c(=O)n3Cc3ccc(F)cc3)C2)c1 (centres undefined)
81 | 965 | Cc1ccc(Nc2nc(-c3ccc(C)cc3C)cs2)nc1
82 | 1100 | COc1ccccc1-c1noc(Cn2c(=O)n(Cc3ccc(C)cc3)c(=O)c3sccc32)n1
83 | 1210 | Cc1ccccc1OCC(=O)Nc1nc(-c2ccccc2Cl)cs1
84 | 587 | Cc1ccc(CN2CC(c3ncc(C)n3Cc3ccccc3)C2)s1
85 | 577 | O=[N+]([O-])c1ccccc1OCC(O)CN1CCN(c2ccccc2F)CC1 (centres undefined)
86 | 623 | O=C(Nc1cccc(Cl)c1)N1CCN(CCn2c(-c3ccncc3)nc3cccnc32)CC1
87 | 874 | CCc1nc(N2CCCC2=O)sc1C(=O)NCc1ccccc1Cl
88 | 833 | Cn1nc(-c2nnc(-c3ccc(F)cc3)o2)c2c1CCN(C(=O)Nc1ccccc1)C2
89 | 685 | Cc1ccc(-c2ncc(C(=O)NC(C)c3ccccn3)c(-c3ccncc3)n2)cc1 (centres undefined)
